{"source": "patent US6787318B1", "about": "“Assay for evaluating the therapeutic effectiveness of agents in reducing Alzheimer's disease pathology” (Roskamp Research Institute, LLC, priority 1999, dated 2004)", "key": {"TNF-α [1]": {"test_system": "TNF-α", "conditions": "high doses, literature (Meda et al.); cited from earlier work"}, "cortical neurons": {"test_system": "cortical neurons", "test": "Cortical neurons incubated with treated N9 microglia, photomicrographs", "assay_type": "cell-based, murine", "conditions": "Aβ1-42 250 nM, CD40L 0.5 μg/ml"}, "CD40 [2]": {"test_system": "CD40", "test": "CD40 cell-surface expression on HAEC, flow cytometry", "assay_type": "cell-based, human", "conditions": "Aβ 500 nM, IFN-γ 10 U/mL; vs control peptide or Aβ-free", "experimental": "Cultured HAEC were treated as described above. […] Cells were analyzed on a FACScan flow cytometer (Becton-Dickinson, Mountain View, Calif.) using LYSIS-II software. CD40-expressing cells are defined as percentage of CD40-staining cells minus the percentage of IgG1-staining cells.\nCD40 expression between control peptide-treated and Aβ-free AEC was relatively similar."}, "CD40 [3]": {"test_system": "CD40", "test": "CD40 expression in HAEC, cell-ELISA (CELISA)", "assay_type": "cell-based, human", "experimental": "In vitro measurement of Aβ-induced changes in expression of the inflammatory cell-surface molecules CD40 and […] in cultured HAEC and HASM cells was performed using a slightly modified ABC-based cell-ELISA (CELISA). […] After PBS washes, 4% neutral formalin solution (Sigma) was used for fixation of the cells. Following quenching of the endogenous peroxidase activity with 3% H2O2 and routine blocking of non-specific binding, the biotinylated specific secondary antibodies against the primary antibodies (goat anti-mouse or anti-rabbit IgG) were applied. The combination of EXTRAVIDIN® Proxidase and the subsequent color reaction was performed strictly according to the manufacturer's instructions in the EXTRAVIDIN® Peroxidase Staining Kit (Sigma). The absorbance of 405 nm was then measured using a microplate reader (SPECTRAmax 250, Molecular Devices). The optical density (O.D.) value for the wells in the absence of the primary antibody for each group was considered as background and subtracted as the blank. In addition, stimulation with IFN-γ for CD40 was included as a positive control in the appropriate plate. Since CD45 is not expressed by endothelial or smooth muscle cells, the assays for expression of CD45 in these Aβ-treated cells were used as negative controls throughout the experiment. In addition, to evaluate the degree of cell death or proliferation in the Aβ-treated, cells, parallel experiments were performed using the MTS (3-(4,5-dimethylthiazol-2-yl)-5-(3-carboxymethoxyphenyl)-2-(4-sulfophenyl)-2H-tetrazolium) cell-proliferation kit (Promega)."}, "TNF-α [4]": {"test_system": "TNF-α", "test": "TNF-α release from cultured microglia, TNF-α ELISA", "assay_type": "cell-based, mice", "conditions": "500 nM, primary cultured microglia"}, "IL-1β": {"test_system": "IL-1β", "test": "IL-1β secretion from HAEC, ELISA", "assay_type": "cell-based, human", "conditions": "24 hours", "experimental": "(§1) The assay for either IL-1β or IFN-γ was performed in strict accordance with the manufacturer's instructions for the respective assay kits.\n(§2) The resulting cell culture media were assayed for IL-1β or IFN-γ using ELISA. […] The lowest effective concentration was determined to be 100 nM for IFN-γ ([…]). The lowest effective concentration was determined to be 100 nM for IFN-γ (p<0.01) and 1 μM for IL-1β (p<0.01)."}, "CD40 [5]": {"test_system": "CD40", "test": "CD40 expression in Aβ-treated N9 and N60 microglial cells, flow cytometry", "assay_type": "cell-based, murine", "from_the_text": "Mononuclear cells from AD patients secrete markedly higher levels of IFN-γ compared to age-matched controls (18)."}, "[6]": {"test_system": "primary cultured cortical neurons", "test": "Primary cultured microglia-mediated neuronal cell injury (micrographs, 51Cr release, LDH release)", "assay_type": "cell-based, mice", "conditions": "primary cultured microglia with cortical neurons", "from_the_text": "CD45 positive cells (brown) are microglia, while neurofilament L-staining cells (red) are neurons. […] Results shown are from one of three independent experiments with similar results; FIG. 2E is a graph showing primary cultured microglia-mediated neuronal cell injury as evidenced by ^51Cr release. Data are reported as mean ^51Cr release values±1 SEM and n=9 for each condition presented. […] N=9 for each condition presented.\nHaving shown that Aβ peptides activate microglia through the CD40 pathway, it was then investigated whether activation of Aβ-pretreated microglia by ligation of CD40 could mediate neuronal cell injury (23,24)."}, "HAEC": {"test_system": "HAEC", "test": "Cytotoxicity in HAEC, LDH release assay", "assay_type": "cell-based, human", "conditions": "500 nM, 48 hours", "experimental": "Previous reports have shown that overexpression of amyloid precursor protein or exogenous addition of Aβ peptides can have cytotoxic effects on cultured endothelial cells.\nIn order to determine if ligation of endothelial CD40 could result in production of pro-inflammatory cytokines, IL-1β was measured following treatment with IFN-γ or Aβ peptides. […] There was not observe a significant induction of endothelial cell death by LDH release assay between treatment groups during the time course examined by IL-1β release assay (by One-way ANOVA, F(6,41)=0.322, p=0.921), supporting the hypothesis that stimulation of the CD40 pathway in endothelial cells results in an early pro-inflammatory cascade which later promotes cell injury, rather than induce cytotoxicity acutely."}, "CD40 [7]": {"test_system": "CD40", "test": "CD40 expression in primary cultured microglia", "assay_type": "cell-based, mice", "conditions": "microglia from control littermates exposed to exogenous peptide, vs Aβ40-1 or sAPPα-695"}, "IFN-γ": {"test_system": "IFN-γ", "test": "IFN-γ secretion from HAEC, ELISA", "assay_type": "cell-based, human", "conditions": "24 hours", "experimental": "as §1\nActivation of CD40 signalling can be achieved by stimulation with either CD40L or certain anti-CD40 mAbs. Since synthetic CD40L is not commercially available, one of the anti-CD40 mAbs (clone 3/23), which has been reported to activate CD40 signalling, was used to mimic the effect of interaction of CD40-CD40L. All Aβ-treated cells were incubated with 1 μg/ml anti-CD40 mAb […]) for four hours followed by CELISA.\nas §2"}}, "note": "Entries after “also recorded” stand apart in the source; their conditions may differ."}
{"substance": "Aβ1-42: amyloid β peptide 1-42, freshly solubilized", "values": [{"measurement": "dose able to produce increased TNF-α production in microglial cells", "setting": "TNF-α [1]", "result": "> 11", "unit": "µM"}, {"measurement": "change in cortical neurons", "setting": "cortical neurons", "result": "no change in cortical neurons"}, {"measurement": "CD40 cell-surface expression, flow cytometry", "setting": "CD40 [2]", "result": "significantly induce CD40 expression"}, {"measurement": "CD40 expression in HAEC, dose dependence", "setting": "CD40 [3]", "result": "dose-dependently increase CD40 expression"}, {"measurement": "lowest effective concentration for CD40 expression", "setting": "CD40 [3]; HAEC", "result": 100, "unit": "nM"}, {"measurement": "TNF-α release, peptide alone", "setting": "TNF-α [4]", "result": "does not induce TNF-α release"}, {"measurement": "lowest effective concentration for IL-1β secretion", "setting": "IL-1β", "result": 1, "unit": "µM"}, {"measurement": "IL-1β secretion, dose dependence", "setting": "IL-1β; increasing concentrations", "result": "increases the secretion of IL-1β and IFN-γ in a dose-dependent manner"}, {"measurement": "CD40 expression on cultured microglial cells", "setting": "CD40 [5]; 250 nM freshly solubilized peptide, N9 and N60 cells, vs control peptide or Aβ-free", "result": "significantly induce CD40 expression"}, {"measurement": "dose dependence of microglial CD40 expression", "setting": "CD40 [5]; from 50 to 1250 nM, N9 cells", "result": "induces microglial CD40 expression in a dose-dependent manner; also recorded: induced microglial CD40 expression in a dose dependent manner"}, {"measurement": "neuronal degeneration / injury in micrographs", "setting": "[6]", "result": "not detectable"}, {"measurement": "cell injury, LDH release", "setting": "HAEC", "result": "no significant induction of cell injury"}, {"measurement": "CD40 expression in primary cultured microglia", "setting": "CD40 [7]", "result": "CD40 expression is increased"}, {"measurement": "lowest effective concentration for IFN-γ secretion", "setting": "IFN-γ", "result": 100, "unit": "nM"}, {"measurement": "IFN-γ secretion, dose dependence", "setting": "IFN-γ; increasing concentrations", "result": "increases the secretion of IL-1β and IFN-γ in a dose-dependent manner"}]}
